Measured values taken from PubChem BioAssay AID330 (DTP/NCI, 2004).
“And” between values parts separate entries of the source, which are not always exact repeats. Identical values can stand only once. Inconclusive results and toxic doses are left out.

Tested on: P388 leukemia ip, CD2F1 mice, survival T/C
Assay: NCI In Vivo Anticancer Drug Screen. Data for tumor model P388 Leukemia (intraperitoneal) in CD2F1 (CDF1) mice
Details: endpoint: median survival time, higher = longer survival
Summary of the method: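 Mice carrying the transplanted tumor received test compound or vehicle. Survival was recorded in each group, and the value is the treated-group measurement divided by that of the vehicle-treated control group.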

[1] = dose: 50.0 mg/kg/injection, schedule: Q01DX005 (ip), vehicle: saline with Tween-80
[2] = dose: 100.0 mg/kg/injection, schedule: Q01DX005 (ip), vehicle: saline with Tween-80
[3] = dose: 200.0 mg/kg/injection, schedule: Q01DX005 (ip), vehicle: saline with Tween-80
[4] = dose: 50.0 mg/kg/injection, schedule: Q01DX009 (ip), vehicle: saline with Tween-80
[5] = dose: 100.0 mg/kg/injection, schedule: Q01DX009 (ip), vehicle: saline with Tween-80
[6] = dose: 200.0 mg/kg/injection, schedule: Q01DX009 (ip), vehicle: saline with Tween-80

Question: How did the T/C [1] turn out when C(=N[C@H]1CCCC[C@H]1N=Cc1ccccn1)c1ccccn1 was run?
Answer: 95 % of control

Question: What about the T/C [2] of the same molecule?
Answer: 90 % of control

Question: And the T/C [3]?
Answer: 101 % of control

Question: For Cc1ccc2[nH]c3c(c2c1)C(=O)CCC3, which T/C (dose: 50.0 mg/kg/injection, schedule: Q01DX005 (ip), vehicle: Klucel (hydroxypropylcellulose) (HPC)) is on record?
Answer: 97 % of control

Question: And the T/C (dose: 100.0 mg/kg/injection, schedule: Q01DX005 (ip), vehicle: Klucel (hydroxypropylcellulose) (HPC))?
Answer: 95 % of control

Question: What about the T/C (dose: 200.0 mg/kg/injection, schedule: Q01DX005 (ip), vehicle: Klucel (hydroxypropylcellulose) (HPC)) of the same molecule?
Answer: 92 % of control

Question: CSCCCNC(=O)c1csc(-c2csc(CCNC(C)=O)n2)n1 was tested. Which T/C (dose: 100.0 mg/kg/injection, schedule: Q04DX002 (ip), vehicle: saline with Tween-80) did it give?
Answer: 98 % of control

Question: What about the T/C (dose: 200.0 mg/kg/injection, schedule: Q04DX002 (ip), vehicle: saline with Tween-80) of the same molecule?
Answer: 95 % of control

Question: And the T/C (dose: 400.0 mg/kg/injection, schedule: Q04DX002 (ip), vehicle: saline with Tween-80)?
Answer: 97 % of control

Question: COC(=O)/C=C1\C(=O)OC(C)(C)C1C (stereo not drawn) was tested. Which T/C (dose: 50.0 mg/kg/injection, schedule: Q01DX009 (ip), vehicle: Klucel (hydroxypropylcellulose) (HPC)) did it give?
Answer: 96 % of control

Question: And the T/C (dose: 100.0 mg/kg/injection, schedule: Q01DX009 (ip), vehicle: Klucel (hydroxypropylcellulose) (HPC))?
Answer: 98 % of control

Question: What about the T/C (dose: 200.0 mg/kg/injection, schedule: Q01DX009 (ip), vehicle: Klucel (hydroxypropylcellulose) (HPC)) of the same molecule?
Answer: 103 % of control

Question: For CN1CCN(C)C(N2CCOCC2)C(C)(C)C1 (stereo not drawn), which T/C (dose: 50.0 mg/kg/injection, schedule: Q01DX005 (ip), vehicle: saline) is on record?
Answer: 93 % of control

Question: And the T/C (dose: 100.0 mg/kg/injection, schedule: Q01DX005 (ip), vehicle: saline)?
Answer: 94 % of control

Question: What about the T/C (dose: 200.0 mg/kg/injection, schedule: Q01DX005 (ip), vehicle: saline) of the same molecule?
Answer: 95 % of control

Question: Which results are given for CC1(C)CC(OC(=O)Oc2c3ccccc3c3ccc4cccc5ccc2c3c54)CC(C)(C)N1O?
Answer: T/C [4]: 97 % of control; T/C [5]: 97 % of control; T/C [6]: 103 % of control

Question: With O=[N+]([O-])c1ccc(N=C/C=C\Nc2ccc([N+](=O)[O-])cc2)cc1 as the molecule, how does the T/C (dose: 60.0 mg/kg/injection, schedule: Q01DX005 (ip), vehicle: Klucel (hydroxypropylcellulose) (HPC)) read?
Answer: 87 % of control

Question: And the T/C (dose: 120.0 mg/kg/injection, schedule: Q01DX005 (ip), vehicle: Klucel (hydroxypropylcellulose) (HPC))?
Answer: 93 % of control

Question: And the T/C (dose: 240.0 mg/kg/injection, schedule: Q01DX005 (ip), vehicle: Klucel (hydroxypropylcellulose) (HPC))?
Answer: 104 % of control

Question: For CCOC(=O)/N=[N+](\[O-])c1cccc(Cl)c1, which T/C (dose: 100.0 mg/kg/injection, schedule: Q01DX001 (ip), vehicle: saline with Tween-80) is on record?
Answer: 110 % of control

Question: What about the T/C (dose: 200.0 mg/kg/injection, schedule: Q01DX001 (ip), vehicle: saline with Tween-80) of the same molecule?
Answer: 102 % of control

Question: How did the T/C (dose: 60.0 mg/kg/injection, schedule: Q01DX005 (ip), vehicle: saline with Tween-80) turn out when COc1ccc(C(C#N)C(=O)C(=O)Nc2ccc(C)cc2C)cc1OC (stereo not drawn) was run?
Answer: 95 % of control

Question: And the T/C (dose: 120.0 mg/kg/injection, schedule: Q01DX005 (ip), vehicle: saline with Tween-80)?
Answer: 100 % of control

Question: CSc1nc(COC(=O)NC(C)C)c(COC(=O)NC(C)C)n1C was tested. Which T/C (dose: 12.5 mg/kg/injection, schedule: Q01DX005 (ip), vehicle: Klucel + Tween-80) did it give?
Answer: 113 % of control

Question: What about the T/C (dose: 25.0 mg/kg/injection, schedule: Q01DX005 (ip), vehicle: Klucel + Tween-80) of the same molecule?
Answer: 116 % of control

Question: And the T/C (dose: 100.0 mg/kg/injection, schedule: Q01DX005 (ip), vehicle: Klucel + Tween-80)?
Answer: 156 % of control and 163 % of control

Question: What about the T/C (dose: 200.0 mg/kg/injection, schedule: Q01DX005 (ip), vehicle: Klucel + Tween-80) of the same molecule?
Answer: 184 % of control

Question: What does the source list for CCCOc1cccc2c1C(=O)c1c(O)c3c(c(O)c1C2=O)C[C@@](O)(C(C)=O)C[C@@H]3OC1CC(N)C(O)C(C)O1 (stereo partly drawn)?
Answer: T/C (dose: 3.13 mg/kg/injection, schedule: Q04DX003 (ip), vehicle: water): 105 % of control; T/C (dose: 6.25 mg/kg/injection, schedule: Q04DX003 (ip), vehicle: water): 121 % of control; T/C (dose: 12.5 mg/kg/injection, schedule: Q04DX003 (ip), vehicle: water): 121 % of control

Question: Which results are given for O=C(N=Cc1ccco1)C(=O)Nc1ccc(Cl)c([N+](=O)[O-])c1?
Answer: T/C [4]: 100 % of control; T/C [5]: 91 % of control; T/C [6]: 96 % of control

Question: O=NNc1ccc(Sc2ccccc2)cn1 was tested. Which T/C (dose: 6.25 mg/kg/injection, schedule: Q01DX009 (ip), vehicle: saline) did it give?
Answer: 153 % of control

Question: And the T/C (dose: 12.5 mg/kg/injection, schedule: Q01DX009 (ip), vehicle: saline)?
Answer: 88 % of control and 90 % of control

Question: C(=C1/SC(c2ccccc2)=NC1c1ccccc1)/c1ccccc1 (stereo not drawn) was tested. Which T/C [4] did it give?
Answer: 92 % of control

Question: What about the T/C [5] of the same molecule?
Answer: 88 % of control

Question: And the T/C [6]?
Answer: 96 % of control

Question: COc1ccc(S(=O)(=O)N/N=C/c2cc(I)cc([N+](=O)[O-])c2O)cc1 was tested. Which T/C [1] did it give?
Answer: 102 % of control

Question: What about the T/C [2] of the same molecule?
Answer: 100 % of control

Question: And the T/C [3]?
Answer: 104 % of control
